Results as given in ChEMBL document CHEMBL1201862, “PubChem BioAssay data set” (2004).
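In this assay, cells in 96-well plates receive the compound at five concentrations for 48 hours. Endpoints are linearly interpolated between the surrounding concentrations. GI50 marks 50% less growth.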 The source made the active and inactive calls. Rule as the data show it: active = GI50 up to about 1.1 µM and inactive = higher.

Key:
Assay in all cases: DTP human tumour cell line panel, 48 h
ACHN = test system: ACHN
COLO 205 = test system: COLO 205
HCC 2998 = test system: HCC 2998
HCT-116 = test system: HCT-116
MDA-MB-435 = test system: MDA-MB-435
MDA-N = test system: MDA-N
MOLT-4 = test system: MOLT-4
NCI-H226 = test system: NCI-H226
NCI-H23 = test system: NCI-H23
OVCAR-3 = test system: OVCAR-3
OVCAR-4 = test system: OVCAR-4
SF-268 = test system: SF-268
SK-MEL-28 = test system: SK-MEL-28
SK-MEL-5 = test system: SK-MEL-5
SNB-19 = test system: SNB-19
SW-620 = test system: SW-620
UACC-257 = test system: UACC-257
UO-31 = test system: UO-31
RPMI-8226 = test system: RPMI-8226

Measured: GI50

CCCSc1cc(Cl)c(C)cc1S(=O)(=O)n1ccnc1O
inactive: ACHN > 100 µM | COLO 205 > 100 µM | HCC 2998 > 100 µM | HCT-116 > 100 µM | MDA-MB-435 > 100 µM | MDA-N > 100 µM | MOLT-4 > 100 µM | NCI-H226 > 100 µM | NCI-H23 > 100 µM | OVCAR-3 > 100 µM | OVCAR-4 > 100 µM | SF-268 > 100 µM | SK-MEL-28 > 100 µM | SK-MEL-5 > 100 µM | SNB-19 > 100 µM | SW-620 > 100 µM | UACC-257 > 100 µM | UO-31 > 100 µM

OC(c1ccc(C(F)(F)F)cc1)C(F)(F)c1nc2ccccc2o1 (stereo unspecified)
inactive: ACHN > 100 µM | COLO 205 > 100 µM | HCC 2998 > 100 µM | HCT-116 > 100 µM | MDA-MB-435 > 100 µM | MOLT-4 > 100 µM | NCI-H226 > 100 µM | NCI-H23 > 100 µM | OVCAR-4 > 100 µM | RPMI-8226 > 100 µM | SF-268 > 100 µM | SK-MEL-28 > 100 µM | SK-MEL-5 > 100 µM | SNB-19 > 100 µM | SW-620 > 100 µM | UACC-257 > 100 µM | UO-31 > 100 µM

O=C(O)c1cc(CCc2ccc(O)c(O)c2)ccc1O
inactive: ACHN > 100 µM | COLO 205 > 100 µM | HCC 2998 > 100 µM | HCT-116 > 100 µM | MDA-MB-435 > 100 µM | MDA-N 18.4 µM | MOLT-4 > 100 µM | NCI-H226 > 100 µM | NCI-H23 > 100 µM | OVCAR-3 > 100 µM | SF-268 > 100 µM | SK-MEL-5 > 100 µM | SNB-19 > 100 µM | SW-620 > 100 µM | UACC-257 > 100 µM | UO-31 > 100 µM

CCN1C[C@]2(COC)[C@H](O)C[C@H](OC)[C@]34C1[C@H]([C@H](OC)[C@H]23)[C@]1(OC(C)=O)[C@H]2[C@@H](OC(=O)c3ccccc3)[C@](O)(C[C@H]24)[C@@H](OC)[C@@H]1O
inactive: ACHN > 100 µM | COLO 205 > 100 µM | HCC 2998 > 100 µM | HCT-116 > 100 µM | MDA-MB-435 > 100 µM | MOLT-4 > 10 µM | NCI-H226 > 100 µM | NCI-H23 > 100 µM | OVCAR-4 > 100 µM | SF-268 > 100 µM | SK-MEL-28 > 100 µM | SK-MEL-5 > 100 µM | SNB-19 > 100 µM | SW-620 > 100 µM | UACC-257 > 100 µM | UO-31 > 100 µM

C[N+](C)([O-])Cc1cc(-c2ccccc2)ccc1O
inactive: ACHN > 100 µM | HCC 2998 > 100 µM | HCT-116 > 100 µM | MDA-MB-435 > 100 µM | MOLT-4 52.5 µM | NCI-H226 > 100 µM | NCI-H23 > 100 µM | OVCAR-3 > 100 µM | OVCAR-4 > 100 µM | SF-268 > 100 µM | SK-MEL-28 > 100 µM | SK-MEL-5 > 100 µM | SNB-19 > 100 µM | SW-620 > 100 µM | UACC-257 > 100 µM | UO-31 > 100 µM

CCCCC1=CC1(C#N)[N+](=O)[O-] (stereo unspecified)
inactive: ACHN > 100 µM | COLO 205 > 100 µM | HCC 2998 > 100 µM | HCT-116 33.1 µM | MDA-MB-435 > 100 µM | MOLT-4 23.3 µM | NCI-H226 > 100 µM | NCI-H23 > 100 µM | OVCAR-3 > 100 µM | OVCAR-4 > 100 µM | RPMI-8226 25.1 µM | SF-268 > 100 µM | SK-MEL-28 > 100 µM | SK-MEL-5 36.5 µM | SNB-19 > 100 µM | SW-620 31.8 µM | UACC-257 > 100 µM | UO-31 > 100 µM

O=C(c1ccco1)C1CC(c2ccc3ccccc3c2O)=NN1c1ccc([N+](=O)[O-])cc1[N+](=O)[O-] (stereo unspecified)
inactive: ACHN 20.5 µM | COLO 205 16.3 µM | HCC 2998 27.7 µM | HCT-116 23.1 µM | MDA-MB-435 28.9 µM | MDA-N 28.6 µM | MOLT-4 1.71 µM | NCI-H226 20.6 µM | NCI-H23 22.7 µM | OVCAR-3 28.1 µM | OVCAR-4 15.6 µM | SF-268 19.4 µM | SK-MEL-28 40.6 µM | SW-620 34.5 µM | UACC-257 28.6 µM | UO-31 16.6 µM

CC(=O)Oc1cc2c(n(C)c1=O)CCC2
inactive: ACHN > 100 µM | COLO 205 > 100 µM | HCC 2998 81.7 µM | HCT-116 > 100 µM | MDA-MB-435 > 100 µM | MOLT-4 > 100 µM | NCI-H226 > 100 µM | NCI-H23 > 100 µM | OVCAR-4 > 100 µM | SF-268 > 100 µM | SK-MEL-28 > 100 µM | SK-MEL-5 > 100 µM | SNB-19 > 100 µM | SW-620 > 100 µM | UACC-257 > 100 µM | UO-31 99.5 µM

COC(=O)Nc1nc2cc(NS(=O)(=O)c3ccc(Cl)cc3)ccc2[nH]1
inactive: ACHN 14.2 µM | COLO 205 9.1 µM | HCT-116 2.45 µM | MDA-MB-435 2.17 µM | MDA-N 2.18 µM | MOLT-4 4.53 µM | NCI-H226 10.6 µM | NCI-H23 9.93 µM | OVCAR-3 3.29 µM | OVCAR-4 13 µM | RPMI-8226 6.75 µM | SF-268 10.4 µM | SK-MEL-28 6.79 µM | SK-MEL-5 3.99 µM | SNB-19 4.33 µM | SW-620 5.11 µM | UO-31 11.7 µM

NC1=Nc2ccccc2Sc2nc3ccccc3n21
inactive: ACHN 29.7 µM | COLO 205 7.8 µM | HCT-116 5.47 µM | MDA-N 5.13 µM | MOLT-4 4.54 µM | NCI-H226 10.4 µM | NCI-H23 25.5 µM | OVCAR-3 8.02 µM | OVCAR-4 7.85 µM | RPMI-8226 4.46 µM | SF-268 18.4 µM | SK-MEL-5 5.4 µM | SNB-19 50.1 µM | SW-620 46.1 µM | UACC-257 26.1 µM | UO-31 7.5 µM

Nc1ccnc2c1ncn2[C@H]1C[C@H](O)[C@@H](CO)O1
inactive: ACHN > 100 µM | COLO 205 > 100 µM | HCC 2998 > 100 µM | HCT-116 > 100 µM | MDA-MB-435 > 100 µM | MDA-N > 100 µM | MOLT-4 > 100 µM | NCI-H226 > 100 µM | NCI-H23 > 100 µM | OVCAR-3 > 100 µM | OVCAR-4 > 100 µM | SF-268 > 100 µM | SK-MEL-28 > 100 µM | SK-MEL-5 > 100 µM | SNB-19 > 100 µM | SW-620 > 100 µM | UACC-257 > 100 µM | UO-31 > 100 µM

CC(=O)CC1=C(OC(C)C)C2(OCCO2)C1O (stereo unspecified)
inactive: ACHN > 100 µM | COLO 205 > 100 µM | HCT-116 > 100 µM | MDA-MB-435 > 100 µM | MDA-N > 100 µM | MOLT-4 > 100 µM | NCI-H226 > 100 µM | NCI-H23 > 100 µM | OVCAR-3 > 100 µM | OVCAR-4 > 100 µM | SF-268 > 100 µM | SK-MEL-28 > 100 µM | SK-MEL-5 > 100 µM | SNB-19 > 100 µM | SW-620 > 100 µM | UACC-257 > 100 µM | UO-31 > 100 µM

O=C(O)c1ccccc1/C=C1\Cc2ccc3c(c2C1=O)CCCC3
inactive: ACHN 36.5 µM | COLO 205 34.4 µM | HCC 2998 31.3 µM | HCT-116 30.1 µM | MDA-MB-435 44.7 µM | MOLT-4 25.2 µM | NCI-H226 28.6 µM | NCI-H23 26.1 µM | OVCAR-3 31 µM | OVCAR-4 41.6 µM | RPMI-8226 26.9 µM | SF-268 64 µM | SK-MEL-28 39.2 µM | SK-MEL-5 15.9 µM | SNB-19 39.4 µM | SW-620 30.8 µM | UACC-257 25.1 µM | UO-31 63.5 µM

COP(=O)(C(/C=C/c1ccccc1)OC(C)=O)[C@@H]1CCCC[C@H]1N(CC(C)(C)C)C(C)=O (stereo partly specified)
inactive: ACHN 16.3 µM | COLO 205 13.9 µM | HCC 2998 12.6 µM | HCT-116 10.9 µM | MDA-MB-435 14.5 µM | MDA-N 15.6 µM | MOLT-4 7.93 µM | NCI-H226 12 µM | NCI-H23 15.8 µM | OVCAR-3 14.5 µM | OVCAR-4 5.62 µM | SF-268 16.6 µM | SK-MEL-28 20.4 µM | SK-MEL-5 14 µM | SNB-19 29 µM | SW-620 16.7 µM | UACC-257 14.3 µM | UO-31 13.9 µM

C=C(C)CC1(O)C(=O)C(OCC)=C1OCC (stereo unspecified)
inactive: ACHN > 100 µM | COLO 205 > 100 µM | HCT-116 > 100 µM | MDA-MB-435 > 100 µM | MDA-N > 100 µM | MOLT-4 > 100 µM | NCI-H226 > 100 µM | NCI-H23 > 100 µM | OVCAR-3 > 100 µM | OVCAR-4 > 100 µM | SF-268 > 100 µM | SK-MEL-28 > 100 µM | SK-MEL-5 > 100 µM | SNB-19 > 100 µM | SW-620 > 100 µM | UACC-257 > 100 µM | UO-31 > 100 µM

COc1ccc(/C=C2\C=Cc3ccccc32)cc1OC
inactive: ACHN 78.2 µM | COLO 205 > 100 µM | HCC 2998 > 100 µM | HCT-116 91.2 µM | MDA-MB-435 > 100 µM | MDA-N > 100 µM | MOLT-4 38.6 µM | NCI-H226 28.4 µM | NCI-H23 24 µM | OVCAR-3 > 100 µM | OVCAR-4 29.9 µM | SF-268 > 100 µM | SK-MEL-28 > 100 µM | SK-MEL-5 43.2 µM | SNB-19 > 100 µM | SW-620 > 100 µM | UACC-257 > 100 µM
